ChEMBL document CHEMBL3632597, “Synthesis and biological evaluation of 5-(fluoro-substituted-6-methylpyridin-2-yl)-4-([1,2,4]triazolo[1,5-a]pyridin-6-yl)imidazoles as inhibitors of transforming growth factor-β type I receptor kinase” (Bioorg Med Chem Lett, 2015)

Tests used:
TGF-beta receptor type-1 = target: T1, TGF-beta receptor type-1 (Homo sapiens, UniProt P36897); assay: Inhibition of human recombinant GST-fused ALK5 expressed in Sf9 insect cells using casein as substrate by proprietary radioisotopic protein kinase assay
T1 sequence (P36897 whole entry): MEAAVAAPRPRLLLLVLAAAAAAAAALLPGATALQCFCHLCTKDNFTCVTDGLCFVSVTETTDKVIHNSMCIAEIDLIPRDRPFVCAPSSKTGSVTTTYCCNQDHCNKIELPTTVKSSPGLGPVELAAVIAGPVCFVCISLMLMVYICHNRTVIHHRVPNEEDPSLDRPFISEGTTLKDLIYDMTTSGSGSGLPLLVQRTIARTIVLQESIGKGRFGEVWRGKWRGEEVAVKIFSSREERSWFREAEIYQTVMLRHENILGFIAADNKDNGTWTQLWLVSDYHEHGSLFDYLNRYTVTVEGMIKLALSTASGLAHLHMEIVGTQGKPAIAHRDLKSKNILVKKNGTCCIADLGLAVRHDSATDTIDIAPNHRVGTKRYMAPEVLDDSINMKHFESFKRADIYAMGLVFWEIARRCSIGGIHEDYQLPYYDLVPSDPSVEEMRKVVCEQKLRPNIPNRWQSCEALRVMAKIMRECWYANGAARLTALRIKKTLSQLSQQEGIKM

[1] = target: Mitogen-activated protein kinase 14 (Homo sapiens, UniProt Q16539); assay: Inhibition of human recombinant p38alpha expressed in Escherichia coli using ATF2 as substrate by proprietary radioisotopic protein kinase assay
Mitogen-activated protein kinase 14, sequence (Q16539 whole entry): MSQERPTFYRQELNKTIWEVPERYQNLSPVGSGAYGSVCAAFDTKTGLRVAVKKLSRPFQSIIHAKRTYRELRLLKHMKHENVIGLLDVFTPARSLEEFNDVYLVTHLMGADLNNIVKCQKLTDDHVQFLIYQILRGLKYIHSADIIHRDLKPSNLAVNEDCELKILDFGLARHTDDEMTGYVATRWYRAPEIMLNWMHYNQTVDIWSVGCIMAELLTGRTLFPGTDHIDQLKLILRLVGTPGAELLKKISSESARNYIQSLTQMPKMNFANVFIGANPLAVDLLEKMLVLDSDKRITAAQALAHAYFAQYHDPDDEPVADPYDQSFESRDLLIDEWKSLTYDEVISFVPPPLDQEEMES

Compound	IC50 (TGF-beta receptor type-1) [nM]	IC50 [1] [nM]
Cc1cc(F)cc(-c2[nH]c(CNc3ccccc3F)nc2-c2ccc3ncnn3c2)n1	41.9	> 10000
Cc1nc(-c2[nH]c(CNc3ccccc3F)nc2-c2ccc3ncnn3c2)ccc1F	12.5	3370
Cc1ccc(F)c(-c2[nH]c(CNc3ccccc3)nc2-c2ccc3ncnn3c2)n1	9.76	399
Cc1cc(F)cc(-c2[nH]c(CNc3ccccc3)nc2-c2ccc3ncnn3c2)n1	72.5	> 10000
Cc1ccc(F)c(-c2[nH]c(CNc3cccc(C(N)=O)c3)nc2-c2ccc3ncnn3c2)n1	11	251
Cc1ccc(F)c(-c2[nH]c(CNc3ccccc3F)nc2-c2ccc3ncnn3c2)n1	12.1	766
Cc1nc(-c2[nH]c(CNc3cccc(C(N)=O)c3)nc2-c2ccc3ncnn3c2)ccc1F	10.8	1480
Cc1nc(-c2[nH]c(CNc3ccccc3)nc2-c2ccc3ncnn3c2)ccc1F	9.23	2040
C=Cc1cccc(NCc2nc(-c3ccc4ncnn4c3)c(-c3ccc(F)c(C)n3)[nH]2)c1	13.7	1810
Cc1ccc(F)c(-c2[nH]c(CNc3cccc(C#N)c3)nc2-c2ccc3ncnn3c2)n1	9.23	209
Cc1nc(-c2[nH]c(CNc3cccc(C#N)c3)nc2-c2ccc3ncnn3c2)ccc1F	7.68	1240
Cc1cccc(-c2nn3c(c2-c2ccnc4ccc(C(N)=O)cc24)CCC3)n1 [GALUNISERTIB]	–	405
C=Cc1cccc(NCc2nc(-c3ccc4ncnn4c3)c(-c3nc(C)ccc3F)[nH]2)c1	9.81	171
